# Test results from paper PMC6944458, “Intracellular and in vivo evaluation of imidazo[2,1-b]thiazole-5-carboxamide anti-tuberculosis compounds” (PLoS ONE, 2020).
# Like-named read-outs stand apart in the source and are kept apart here.
# What was measured:
# Format in all cases: cell-based, Mycobacterium tuberculosis
# [1] = test system: Rifampicin resistant strain derived from H37Rv Mtb, ropB mutant (S522L)
# [2] = test system: Isoniazid resistant strain derived from H37Rv Mtb, katG mutant (Y155* = truncation)
# [3] = test system: Fluoroquinolone resistant strain derived from H37Rv Mtb, gyrA mutant (D94N)
# [4] = test system: Isoniazid resistant strain ACTCC35822
# [5] = test system: Rifampicin resistant strain ACTCC35838; test: microbe, parasite or virus in culture; settings: read-out: MIC RIF res2
Structure (SMILES),MIC RIF res1 [1] [µM],MIC INH res1 [2] [µM],MIC FQ res [3] [µM],MIC INH res2 [4] [µM],MIC ([5]; Mycobacterium tuberculosis) [µM],MIC INH res2 ([4]; ACTCC35822) [µM],MIC [5] [µM]
"NNC(=O)c1ccncc1 [INH, Isoniazid]",0.160,>200,0.34,>200,0.37,–,–
"C[C@H]1COc2c(N3CCN(C)CC3)c(F)cc3c(=O)c(C(=O)O)cn1c23 [LEV, Levoflaxacin]",3.43,3.97,91,–,–,5.83,3.83
"Cc1cn2c(C(=O)NCc3ccc(N4CCN(c5ccc(C(F)(F)F)cn5)CC4)c(F)c3)c(C)nc2s1 [ND-11543, N-(3-fluoro-4-(4-(5-(trifluoromethyl)pyridin-2-yl)piperazin-1-yl)benzyl)-2,6-dimethylimidazo[2,1-b]thiazole-5-carboxamide]",0.0017,0.012,0.010,0.0047,0.0057,–,–
"Cc1cn2c(C(=O)NCc3ccc(N4CCS(=O)(=O)CC4)c(F)c3)c(C)nc2s1 [ND-11903, N-(4-(1,1-Dioxidothiomorpholino)-3-fluorobenzyl)-2,6-dimethylimidazo[2,1-b]thiazole-5-carboxamide]",2.9,6.5,3.2,5.0,7,–,–
"CCc1nc2sc(C)cn2c1C(=O)NCc1ccc(Oc2cccc(C(F)(F)F)c2)nc1 [ND-12024, 6-Ethyl-2-methyl-N-((6-(3-(trifluoromethyl)phenoxy)yridine-3-yl)methyl)imidazo[2,1-b]thiazole-5-carboxamide]",0.047,0.49,0.40,0.22,0.13,–,–
CCc1nc2ccc(Cl)cn2c1C(=O)NCc1ccc(N2CCC(c3ccc(OC(F)(F)F)cc3)CC2)cc1 [Q203],0.0030,0.0074,0.0058,0.0038,0.0056,–,–
"CO[C@H]1/C=C/O[C@@]2(C)Oc3c(C)c(O)c4c(O)c(c(/C=N/N5CCN(C)CC5)c(O)c4c3C2=O)NC(=O)/C(C)=C\C=C\[C@H](C)[C@H](O)[C@@H](C)[C@@H](O)[C@@H](C)[C@H](OC(C)=O)[C@@H]1C [RIF, Rifampicin]",3.2,0.027,0.043,0.013,> 50,–,–
